Test results from patent US6479435B1, “Diaryl ethers and processes for their preparation and herbicidal and desiccant compositions containing them” (ISK Americas Incorporated, priority 1997, dated 2002).

What was measured:
Assay type in all cases: in vivo
[1] = test system: Johnsongrass (Sorghum halepense, SORHA); assay: Pre-emerge greenhouse herbicide test, phytotoxicity rating; conditions: 1000 g ai/ha, 14 days after application, rating scale 0-100
Description: (§1) A standard greenhouse herbicide activity screening system was used to evaluate the herbicidal efficacy and crop safety of these test compounds. Six broadleaf weed species including redroot pigweed (Amaranthus retroflexus, AMARE), velvetleaf (Abutilon theophrasti, ABUTH), sicklepod (Cassia obtusifolia, CASOB), ivyleaf morningglory (Ipomoea hederacea, IPOHE), lambsquarters (Chenopodium album, CHEAL) and common ragweed (Ambrosia artemisiifolia L., AMBEL) were used as test species. Four grass weed species including green foxtail (Setaria viridis, SETVI), barnyardgrass (Echinochloa crusgalli, ECHCG), Johnsongrass (Sorghum halepense, SORHA), and large crabgrass (Digitaria sanguinalis, DIGSA) were also used. In addition, three crop species, field corn (Zea mays L., var. Dekalb 535, CORN), soybean (Glycine max L., var. Pella 86, SOY), and upland rice (Oryza sp., var.Tebonnet, RICE) were included.
(§2) All plants were grown in 10 cm square plastic pots which were filled with a sandy loam soil mix. For preemerge tests, seeds were planted one day prior to application of the test compounds. Immediately after application, test units of the pre-emerge applications were watered at the soil surface to incorporate the test materials. Subsequently, these test units were bottom-watered.
(§3) All test compounds were dissolved in acetone and applied to the test units in a volume of 187 l/ha. Test materials were applied at rates ranging from 125 g ai/ha to 1000 g ai/ha using a track sprayer equipped with a TJ8001E even flow flat fan spray nozzle. Plants were arranged on a shelf so that the top of the canopy (post-emerge) or top of the soil surface (pre-emerge) was 40-45 cm below the nozzle. Pressurized air was used to force the test solution through the nozzle as it was mechanically advanced (via electrically driven chain drive) over the top of all test plants/pots. This application simulates a typical commercial field herbicide application.
(§4) At 14 days after application of the test materials, phytotoxicity ratings were recorded. A rating scale of 0-100 was used as previously described in Research Methods in Weed Science, 2nd edition, B. Truelove, Ed., Southern Weed Science Society, Auburn University, Auburn, Ala., 1977. Briefly, “0” corresponds to no damage and “100” corresponds to complete death of all plants in the test unit. This scale was used both to determine efficacy against weed species and damage to crop species. Herbicide activity data for various compounds of this invention, which are shown by compound number in Tables 1-9, are shown in Tables 13 and 14.

[2] = test system: barnyardgrass (Echinochloa crusgalli, ECHCG); assay: as above; conditions: 1000 g ai/ha, 14 days after application, rating scale 0-100
Description: as §1, §2, §3, §4

[3] = test system: green foxtail (Setaria viridis, SETVI); assay: as above; conditions: 1000 g ai/ha, 14 days after application, rating scale 0-100
Description: as §1, §2, §3, §4

[4] = test system: ivyleaf morningglory (Ipomoea hederacea, IPOHE); assay: as above; conditions: 1000 g ai/ha, 14 days after application, rating scale 0-100
Description: as §1, §2, §3, §4

[5] = test system: lambsquarters (Chenopodium album, CHEAL); assay: as above; conditions: 1000 g ai/ha, 14 days after application, rating scale 0-100
Description: as §1, §2, §3, §4

[6] = test system: large crabgrass (Digitaria sanguinalis, DIGSA); assay: as above; conditions: 1000 g ai/ha, 14 days after application, rating scale 0-100
Description: as §1, §2, §3, §4

[7] = test system: redroot pigweed (Amaranthus retroflexus, AMARE); assay: as above; conditions: 1000 g ai/ha, 14 days after application, rating scale 0-100
Description: as §1, §2, §3, §4

[8] = test system: sicklepod (Cassia obtusifolia, CASOB); assay: as above; conditions: 1000 g ai/ha, 14 days after application, rating scale 0-100
Description: as §1, §2, §3, §4

[9] = test system: velvetleaf (Abutilon theophrasti, ABUTH); assay: as above; conditions: 1000 g ai/ha, 14 days after application, rating scale 0-100
Description: as §1, §2, §3, §4

[10] = test system: field corn (Zea mays L., var. Dekalb 535, CORN); assay: Pre-emerge greenhouse test, crop damage rating; conditions: 1000 g ai/ha, 14 days after application, rating scale 0-100
Description: as §1, §2, §3, §4

[11] = test system: upland rice (Oryza sp., var.Tebonnet, RICE); assay: Pre-emerge greenhouse test, crop damage rating; conditions: 1000 g ai/ha, 14 days after application, rating scale 0-100
Description: as §1, §2, §3, §4

[12] = test system: soybean (Glycine max L., var. Pella 86, SOY); assay: Pre-emerge greenhouse test, crop damage rating; conditions: 1000 g ai/ha, 14 days after application, rating scale 0-100
Description: as §1, §2, §3, §4

[13] = test system: Johnsongrass (Sorghum halepense, SORHA); assay: Post-emerge greenhouse herbicide test, phytotoxicity rating; conditions: 1000 g al/ha, 14 days after application
Description: as §1, §3
(§5) In the post-emerge test, a commercial non-ionic surfactant was also included (0.25% v/v) to enhance wetting of the leaf surfaces Qf target plants at rates ranging from 63 g ai/ha to 1000 g ai/ha. For post-emerge tests, seeds were planted 8-21 days prior to the test to allow emergence and good foliage development prior to application of the test substances. At the time of the post-emerge application, plants of all species were usually at the 2-3 leaf stage of development. Post-emerge test units were always bottom-watered.
as §4

[14] = test system: barnyardgrass (Echinochloa crusgalli, ECHCG); assay: as above; conditions: 1000 g al/ha, 14 days after application
Description: as §1, §3, §5, §4

[15] = test system: green foxtail (Setaria viridis, SETVI); assay: as above; conditions: 1000 g al/ha, 14 days after application
Description: as §1, §3, §5, §4

[16] = test system: ivyleaf morningglory (Ipomoea hederacea, IPOHE); assay: as above; conditions: 1000 g al/ha, 14 days after application
Description: as §1, §3, §5, §4

[17] = test system: lambsquarters (Chenopodium album, CHEAL); assay: as above; conditions: 1000 g al/ha, 14 days after application
Description: as §1, §3, §5, §4

[18] = test system: large crabgrass (Digitaria sanguinalis, DIGSA); assay: as above; conditions: 1000 g al/ha, 14 days after application
Description: as §1, §3, §5, §4

[19] = test system: redroot pigweed (Amaranthus retroflexus, AMARE); assay: as above; conditions: 1000 g al/ha, 14 days after application
Description: as §1, §3, §5, §4

[20] = test system: sicklepod (Cassia obtusifolia, CASOB); assay: as above; conditions: 1000 g al/ha, 14 days after application
Description: as §1, §3, §5, §4

[21] = test system: velvetleaf (Abutilon theophrasti, ABUTH); assay: as above; conditions: 1000 g al/ha, 14 days after application
Description: as §1, §3, §5, §4

[22] = test system: field corn (Zea mays L., var. Dekalb 535, CORN); assay: Post-emerge greenhouse test, crop damage rating; conditions: 1000 g al/ha, 14 days after application
Description: as §1, §3, §5, §4

[23] = test system: upland rice (Oryza sp., var.Tebonnet, RICE); assay: Post-emerge greenhouse test, crop damage rating; conditions: 1000 g al/ha, 14 days after application
Description: as §1, §3, §5, §4

[24] = test system: soybean (Glycine max L., var. Pella 86, SOY); assay: Post-emerge greenhouse test, crop damage rating; conditions: 1000 g al/ha, 14 days after application
Description: as §1, §3, §5, §4

Structure (SMILES): N#Cc1cccnc1Oc1cc(-n2c(=O)cc3n(c2=O)CCC3)c(F)cc1Cl [Compound 5-9]
- phytotoxicity rating SORHA [1]: 90
- phytotoxicity rating ECHCG [2]: 0
- phytotoxicity rating SETVI [3]: 90
- phytotoxicity rating IPOHE [4]: 100
- phytotoxicity rating CHEAL [5]: 100
- phytotoxicity rating DIGSA [6]: 90
- phytotoxicity rating AMARE [7]: 80
- phytotoxicity rating CASOB [8]: 30
- phytotoxicity rating ABUTH [9]: 100
- crop damage rating CORN [10]: 0
- crop damage rating RICE [11]: 50
- crop damage rating SOY [12]: 50
- SORHA phytotoxicity rating (0-100) [13]: 0
- ECHCG phytotoxicity rating (0-100) [14]: 0
- SETVI phytotoxicity rating (0-100) [15]: 10
- IPOHE phytotoxicity rating (0-100) [16]: 90
- CHEAL phytotoxicity rating (0-100) [17]: 70
- DIGSA phytotoxicity rating (0-100) [18]: 0
- AMARE phytotoxicity rating (0-100) [19]: 50
- CASOB phytotoxicity rating (0-100) [20]: 30
- ABUTH phytotoxicity rating (0-100) [21]: 100
- CORN crop damage rating (0-100) [22]: 5
- RICE crop damage rating (0-100) [23]: 25
- SOY crop damage rating (0-100) [24]: 30
